Data on 1 molecule can be found in patent US5574026A, “Methods for inhibiting angiogenesis proliferation of endothelial or tumor cells and tumor growth” (American Cyanamid Company, priority 1994, dated 1996).

Entries after “also recorded” stand apart in the source; their conditions may differ. A value given as a limit tells only on which side of the number the result lay.

Assay [1] concerns Adult Bovine Aortic Endothelial (ABAE) cell line. Description: Antiproliferative activity in Adult Bovine Aortic Endothelial (ABAE) cell line, PROTOCOL 3 (4 days, cell count). It is filed as cell-based. Here is the method:
The antiproliferative activity of the compounds of Formula I in an Adult Bovine Aortic Endothelial (ABAE) cell line and in Human Tumor cells lines is evaluated in three similar assays that measure growth inhibition. The assays are identified as follows:
PROTOCOLS 1, 2, and 3 are described in greater detail hereinbelow. In general, according to PROTOCOLS 1 and 2, the target ABAE and/or Human Tumor cells are exposed to the compounds of Formula I for 48 hours. PROTOCOL 3 exposes ABAE cells to the compounds for 4 days. A detailed description of the Protocols is as follows:
Antiproliferative Activity in Adult Bovine Aortic Endothelial (ABAE) Cell Line
ABAE cells are grown in DMEM media (Mediatech, Washington, D.C.) supplemented with 10% calf serum (Hyclone). ABAE cells are plated in 24-well dishes at 8,000 cells/well, followed by the addition of increasing concentrations of 7-halogen-9-[hydrogen or [(substituted glycyl)amido]]-6-demethyl-6-deoxytetracycline. After four days, the cells are detached and counted. […] The growth inhibition (I) as % of control is calculated as follows: [formula] wherein: Nc is the number of cells in untreated wells;
Nt is the number of cells in treated wells;
No is the number of plated cells.
IC50 of growth inhibition is determined from the sets of I values plotted by Kaleidograph software (Abelbeck Software).
Table 1 presents the results depicting the antiproliferative activity of the compounds of Formula I against an ABAE cell line, as evaluated by PROTOCOL 2 and PROTOCOL 3. The results are presented in terms of IC50 and are as follows.

The next assay has as its system angiogenesis. To be noted: Brem et al; in words; cited from earlier work.

Regarding `CN(C)c1ccc(O)c2c1C[C@H]1C[C@H]3[C@H](N(C)C)C(O)=C(C(N)=O)C(=O)[C@@]3(O)C(O)=C1C2=O` [Minocycline, reference compound], the IC50 (commonly the midpoint of a concentration-inhibition curve) in assay [1] (Bos taurus, 96 h, ABAE cells, PROTOCOL 3, 4 days, read-out: IC50 PROTOCOL 3) was at least 50 µg/mL. For the same molecule, in assay [1] (FIG. 1, 4 day assay (Protocol 3), in words), the “activity upon incubation with cells” value is “losing its activity upon incubation with cells”. In the assay with angiogenesis, the inhibition of angiogenesis entry was “inhibits angiogenesis to an extent comparable to that of the combination therapy of heparin and cortisone; also recorded: useful as inhibitors of angiogenesis”.
